What was measured:
[1] = system: HeLa; assay: cells; conditions: Homo sapiens
Description: Cytotoxicity against human HeLa cells at 50 uM by MTT reduction assay

[2] = system: MCF7; assay: Cytotoxicity against human MCF7 cells […] by MTT reduction assay; format: functional, cell-based
[3] = system: LS180; assay: cells; conditions: Homo sapiens
Description: Cytotoxicity against human LS180 cells at 50 uM by MTT reduction assay

[4] = system: K562; assay: cells; conditions: Homo sapiens
Description: Cytotoxicity against human K562 cells at 50 uM by MTT reduction assay

[5] = system: Bacillus subtilis; assay: Antibacterial activity against Bacillus subtilis assessed as zone of inhibition at 100 ug/ml; format: functional; conditions: read-out: IZ
[6] = system: Staphylococcus aureus; assay: Antibacterial activity against Staphylococcus aureus assessed as zone of inhibition at 100 ug/ml; format: functional; conditions: read-out: IZ
[7] = system: Escherichia coli; assay: Antibacterial activity against Escherichia coli assessed as zone of inhibition at 100 ug/ml; format: functional; conditions: read-out: IZ
[8] = system: Salmonella typhimurium; assay: Antibacterial activity against Salmonella typhimurium DT104 assessed as zone of inhibition at 100 ug/ml; format: functional, Salmonella enterica subsp. enterica serovar Typhimurium; conditions: Salmonella enterica, read-out: IZ

SMILES | IC50 [1] | IC50 [2] | IC50 [3] | IC50 [4] | zone of inhibition at 100 µg/mL [5] | zone of inhibition at 100 µg/mL [6] | zone of inhibition at 100 µg/mL [7] | zone of inhibition at 100 µg/mL [8]
O=C1CCCc2nc3c(c(-c4cccc(Br)c4)c21)c(=O)oc1ccccc13 | 83.6 µM | 31.4 µM | > 100 µM | 38.8 µM |  |  |  | 
CC1(C)S[C@@H]2[C@H](NC(=O)Cc3ccccc3)C(=O)N2[C@H]1C(=O)O [PENICILLIN G] |  |  |  |  | 24 mm | 24 mm | 22 mm | 22 mm
COc1ccc(-c2c3c(nc4c2c(=O)oc2ccccc24)CCCC3=O)cc1 | 98.5 µM | 62 µM | > 100 µM | > 100 µM |  |  |  | 
Cc1ccc2c(c1)oc(=O)c1c(-c3cn(-c4ccccc4)nc3-c3ccccc3)cc(-c3c(O)c(C)cc(I)c3O)nc12 |  |  |  |  | 18 mm | 15 mm | 18 mm | 12 mm
Cc1ccc2c(c1)oc(=O)c1c(-c3cn(-c4ccccc4)nc3-c3ccccc3)cc(-c3ccc(Cl)cc3Cl)nc12 |  |  |  |  | 19 mm | 16 mm | 21 mm | 19 mm
Cc1ccc2c(c1)oc(=O)c1c(-c3cn(-c4ccccc4)nc3-c3ccccc3)cc(-c3c(O)ccc(Cl)c3O)nc12 |  |  |  |  | 18 mm | 19 mm | 21 mm | 20 mm
Cc1cccc(-c2c3c(nc4c2c(=O)oc2ccccc24)CCCC3=O)c1 | > 100 µM |  | > 100 µM | 57.4 µM |  |  |  | 
O=C1CCCc2nc3c(c(-c4ccc([N+](=O)[O-])cc4)c21)c(=O)oc1ccccc13 | 88.2 µM | > 100 µM | > 100 µM | 43.8 µM |  |  |  | 
O=C1CCCc2nc3c(c(-c4ccccc4Cl)c21)c(=O)oc1ccccc13 | > 100 µM | > 100 µM | > 100 µM | > 100 µM |  |  |  | 
Cc1ccc2c(c1)oc(=O)c1c(-c3cn(-c4ccccc4)nc3-c3ccccc3)cc(-c3c(O)c(Cl)cc(Br)c3O)nc12 |  |  |  |  | 16 mm | 18 mm | 19 mm | 12 mm
Cc1ccc2c(c1)oc(=O)c1c(-c3cn(-c4ccccc4)nc3-c3ccccc3)cc(-c3c(O)c(Cl)cc(I)c3O)nc12 |  |  |  |  | 22 mm | 19 mm | 20 mm | 16 mm
Cc1ccc2c(c1)oc(=O)c1c(-c3cn(-c4ccccc4)nc3-c3ccccc3)cc(-c3c(O)c(I)c(C)c(Cl)c3Cl)nc12 |  |  |  |  | 12 mm | 15 mm | 9 mm | 12 mm
Cc1ccc2c(c1)oc(=O)c1c(-c3cn(-c4ccccc4)nc3-c3ccccc3)cc(-c3c(O)c(I)cc(Cl)c3Cl)nc12 |  |  |  |  | 8 mm | 16 mm | 18 mm | 14 mm
Cc1ccc2c(c1)oc(=O)c1c(-c3cn(-c4ccccc4)nc3-c3ccccc3)cc(-c3c(O)cc(O)cc3Cl)nc12 |  |  |  |  | 14 mm | 10 mm | 19 mm | 12 mm
Cc1ccc2c(c1)oc(=O)c1c(-c3cn(-c4ccccc4)nc3-c3ccccc3)cc(-c3c(O)cc(C)c(Cl)c3Cl)nc12 |  |  |  |  | 14 mm | 7 mm | 8 mm | 10 mm
Cc1ccc2c(c1)oc(=O)c1c(-c3cn(-c4ccccc4)nc3-c3ccccc3)cc(-c3c(O)ccc(Cl)c3Cl)nc12 |  |  |  |  | 10 mm | 8 mm | 12 mm | 10 mm
Cc1ccc2c(c1)oc(=O)c1c(-c3cn(-c4ccccc4)nc3-c3ccccc3)cc(-c3c(O)c(Br)cc(Cl)c3Cl)nc12 |  |  |  |  | 20 mm | 21 mm | 19 mm | 22 mm

Reference: ChEMBL document CHEMBL5230136, “A review: Biologically active 3,4-heterocycle-fused coumarins” (Eur J Med Chem, 2021)
